Data on 39 molecules can be found in patent publication US20080076824A1, “Compounds That Inhibit Replication Of Human Immunodeficiency Virus” (priority 2004, published 2008).

For data set [1], the system named is HIV-1 (IIIB). Briefly: microbe, parasite or virus in culture. As to conditions: Human immunodeficiency virus 1, IIIB, CCRF-CEM.
Data set [2] deals with HIV-1 (IIIB).
Data set [3] deals with HIV-1 (IIIB). In words: microbe, parasite or virus in culture. As for the experimental part:
(§1) MT-4, C8166 or CEM cells (4 to 5×10^5 cells per ml) were suspended in fresh culture medium (RPMI-1640 medium supplemented with 10% fetal bovine serum (FBS) (BioWittaker Europe, Verviers, Belgium), 2 mM L-glutamine and […] NaHCO3). Subsequently, the cells were infected with HIV-1 (IIIB) or HIV-2(ROD) at ˜100 CCID50 (1 CCID50 being the dose infective for 50% of the cell cultures) per ml of cell suspension. Then, 100 μl of the infected cell suspension were transferred to 96-well microplate wells, mixed with 100 μl of the appropriate (5-fold) dilutions of the test compounds and further incubated at 37° C. After 4 to 5 days, giant cell formation was recorded microscopically in the CEM and C8166 cell cultures. The MT-4 cell cultures were treated with trypan blue and the number of viable cells was determined.

The test system of a further data set is HIV-2(ROD). Briefly: microbe, parasite or virus in culture. As for the experimental part:
as §1

Data set [4] relates to HIV (SF2 virus). In words: HIV infectivity assay, SF2-infected H9 cells, visible syncytia. It is filed as cell-based. Particulars: for Visible syncytia: H9/SF2, day 11.
Data set [5] has as its system HIV (SF2 virus). Briefly: HIV infectivity assay, SF2-infected H9 cells, p24 quantification. It is filed as cell-based. Particulars: for OD1: replicates (1)-(3). As for the experimental part:
The remaining wells were filled with sterile distilled water. The cell culture plates were incubated at 37° C. and 5% CO2. After four days the medium was changed, after eight days the medium was changed and the cells were collected. After 11 days, the infection was stopped, the cells were viewed in a 10× magnification microscope and 650 μl of each cell supernatant was collected and frozen at −80° C. for further analysis. After five more days, the supernatants were thawed and used in a conventional reverse transcriptase (RT) activity assay (e.g., Roche AMPLICOR MONITOR™) or a p24 quantification assay (e.g., Abbott Laboratories, Chicago). (See U.S. Pat. No. 6,258,932 and U.S. patent application Ser. No. 10/235,158, both of which are hereby expressly incorporated by reference in its entireties).
[…] The cells in the samples were counted and then centrifuged. The cells were then resuspended in 10 ml of RPMI 1640 (containing fetal calf serum) and either […] Metabolite X or 100 μM GPG-NH2. Uninfected control and untreated control samples were also included in the experiment. The samples were then incubated overnight at 37° C. at 5% CO2.
Then, the amount of p24 in the samples was analysed using a conventional p24 detection assay (see U.S. Pat. No. 6,258,932).
Three replicate samples (“replicates”) of uninfected samples and untreated samples were also included in the experiment as controls. The inhibition of HIV replication was monitored by quantifying the levels of p24 using a conventional detection kit.
Three replicates of unninfected samples and untreated samples were also included in the experiment as controls.

In data set [6] the test system is HIV (SF2 virus). In words: HIV infectivity assay, SF2-infected H9 cells, reverse transcriptase (RT) quantification in supernatant. The format is cell-based. As to conditions: for inhibition of HIV replication, reverse transcriptase (RT) activity: cultures containing boiled fetal calf serum.
[7] abbreviates: read-out: EC50 against HIV-1(IIIB), CEM cell cultures, Table 2.
The mark [8] stands for this setting: read-out: EC50 (CEM) HIV-1 (IIIB), Table 19.

Values joined by “and” are separate entries in the source; they are usually repeats but may differ in a detail not shown here. Identical values can stand only once. “Also recorded” adds a separate entry of the source. Like-named read-outs stand apart in the source and are kept apart here.

Usually EC50 stands for the concentration at which the effect is half-maximal. Take `NCC(N)C(=O)O` (racemic) [DL-2,3-diaminopropionic acid]: in the data set with HIV-1 (IIIB) [1] (setting [7]), the EC50 is above 1000 µM.

Regarding `CC(C)CC(N)C(N)=O` (racemic) [DL-Leucinamide], the EC50 in the data set on HIV-1 (IIIB) [1] (setting [7]) was above 500 µM.

Turning to `NC(=O)C(N)Cc1ccccc1` (racemic) [DL-Phenylalaninamide], in the data set on HIV-1 (IIIB) [1] (setting [7]), the 50% effective concentration (EC50) is above 1000 µM.

On to `NC(=O)C(N)Cc1c[nH]c2ccccc12` (racemic) [DL-Tryptophanamide], for which, in the data set with HIV-1 (IIIB) [1] (setting [7]), the half-maximal effective concentration (EC50) was above 500 µM.

On to `NCC(O)CN` [1,3-diamino-2-hydroxypropane], for which the EC50 in the data set on HIV-1 (IIIB) [1] (setting [7]) was above 1000 µM.

In the case of `NCC(=O)CN` [1,3-diaminoaceton], the concentration giving a half-maximal response (EC50) in the data set on HIV-1 (IIIB) [1] (setting [7]) is above 1000 µM.

Take `NC(=O)C[C@@H](N)C(=O)O` [D-Asparagine]: the EC50 in the data set on HIV-1 (IIIB) [1] (setting [7]) was above 500 µM.

With `CC(C)C[C@@H](N)C(=O)O` [D-Leucine], the half-maximal effective concentration (EC50) in the data set on HIV-1 (IIIB) [1] (setting [7]) is above 1000 µM.

On to `NCCN` [Ethylene diamine], for which the half-maximal effective concentration (EC50) in the data set with HIV-1 (IIIB) [1] (setting [7]) was above 1000 µM.

Usually melting point stands for the temperature of the solid-liquid transition. `CC(C)(C)OC(=O)NC(=O)C(N)OCc1ccccc1` (stereo not drawn) [Example 20, α-benzyloxy-N-tert-butoxycarbonylglycinamide] yielded a melting point of 115 to 120 °C.

In the case of `COC(N)C(=O)NC(=O)OCc1ccccc1` (stereo not drawn) [Example 22, α-methoxy-N-benzyloxycarbonylglycinamide], the melting point is 110 to 112 °C.

Regarding `CCOC(=O)C(NC(=O)OCc1ccccc1)OCC` (stereo not drawn) [Example 23, α-ethoxy-N-benzyloxycarbonylglycine ethyl ester], the melting point was 66 to 68 °C.

Take `CCOC(N)C(=O)NC(=O)OCc1ccccc1` (stereo not drawn) [Example 25, α-ethoxy-N-benzyloxycarbonylglycinamide]: the melting point is 119 to 121 °C.

`CC(C)OC(N)C(=O)NC(=O)OCc1ccccc1` (stereo not drawn) [Example 26, α-isopropoxy-N-benzyloxycarbonylglycinamide] showed a melting point of 111 to 113 °C.

With `NCC(N)=S` [Glycin-thioamide, reference compound], the concentration giving a half-maximal response (EC50) in the data set with HIV-1 (IIIB) [2] (setting [7]) was above 500 µM.

As for `CNC(=O)CN` [Glycine methylamide], in the data set with HIV-1 (IIIB) [1] (setting [7]), the concentration for a half-maximal effect (EC50) was above 500 µM.

As for `NCC(=O)O` [Glycine], the half-maximal effective concentration (EC50) in the data set on HIV-1 (IIIB) [1] (setting [7]) is above 500 µM.

Turning to `NC(=O)CO` [Glycolamide, Glycolamide (HO—CH2—CO—NH2), reference compound], the EC50 is above 500 µM in the data set with HIV-1 (IIIB) [2] (setting [8]); above 500 µM with HIV-1 (IIIB) [3] (read-out: EC50 (MT-4) HIV-1 (IIIB), Table 19); above 500 µM in the data set with HIV-2(ROD) (read-out: EC50 (MT-4) HIV-2 (ROD), Table 19).

As to `C[C@H](N)C(N)=O` [L-Alaninamide], in the data set on HIV-1 (IIIB) [1] (setting [7]), the EC50 was above 500 µM.

For the molecule `C[C@H](N)C(=O)O` [L-Alanine], the EC50 in the data set with HIV-1 (IIIB) [1] (setting [7]) is above 500 µM.

Regarding `N=C(N)NCCC[C@H](N)C(N)=O` [L-Argininamide], in the data set on HIV-1 (IIIB) [1] (setting [7]), the EC50 was above 500 µM.

Turning to `NC(=O)C[C@H](N)C(N)=O` [L-Asparaginamide, reference compound], the figures for the concentration for a half-maximal effect (EC50) with HIV-1 (IIIB) [2] (setting [7]) and in the data set with HIV-1 (IIIB) [1] (setting [7]) were above 1000 µM and above 500 µM, respectively.

Turning to `CC[C@H](C)[C@H](N)C(N)=O` [L-Isoleucinamide], the EC50 in the data set with HIV-1 (IIIB) [1] (setting [7]) was above 500 µM.

For `CC(C)C[C@H](N)C(N)=O` [L-Leucinamide], the EC50 in the data set with HIV-1 (IIIB) [1] (setting [7]) was above 500 µM.

Turning to `CC(C)C[C@H](N)C(=O)O` [L-Leucine], in the data set on HIV-1 (IIIB) [1] (setting [7]), the half-maximal effective concentration (EC50) was above 500 µM.

On to `NCCCC[C@H](N)C(N)=O` [L-Lysinamide], for which, in the data set on HIV-1 (IIIB) [1] (read-out: EC50 against HIV-1(IIIB)), the EC50 was above 500 µM.

For `CSCC[C@H](N)C(N)=O` [L-Methioninamide], the EC50 in the data set on HIV-1 (IIIB) [1] (setting [7]) is above 500 µM.

Regarding `NC(=O)[C@@H](N)Cc1ccccc1` [L-Phenylalaninamide], the EC50 with HIV-1 (IIIB) [1] (setting [7]) was above 500 µM.

For `NC(=O)[C@@H]1CCCN1` [L-Prolinamide], the EC50 in the data set with HIV-1 (IIIB) [1] (setting [7]) is above 1000 µM.

Consider `O=C(O)[C@@H]1CCCN1` [L-Proline], for which the concentration for a half-maximal effect (EC50) in the data set with HIV-1 (IIIB) [1] (setting [7]) was above 500 µM.

In the case of `NC(=O)[C@@H](N)CO` [L-Serinamide], the EC50 in the data set with HIV-1 (IIIB) [1] (setting [7]) is above 1000 µM.

Regarding `C[C@@H](O)[C@H](N)C(N)=O` [L-Threoninamide], in the data set on HIV-1 (IIIB) [1] (setting [7]), the half-maximal effective concentration (EC50) was above 500 µM.

For `NC(=O)[C@@H](N)Cc1c[nH]c2ccccc12` [L-Tryptophanamide], the EC50 in the data set on HIV-1 (IIIB) [1] (setting [7]) was above 200 µM.

For `NC(=O)[C@@H](N)Cc1ccc(O)cc1` [L-Tyrosinamide], the EC50 in the data set on HIV-1 (IIIB) [1] (setting [7]) is above 500 µM.

Consider `CC(C)[C@H](N)C(=O)Nc1ccc2ccccc2c1` [L-Val β-naphthylamide, reference compound], for which, in the data set with HIV-1 (IIIB) [2] (setting [7]), the 50% effective concentration (EC50) is above 100 µM.

On to `CC(C)[C@H](N)C(N)=O` [L-Valinamide], for which the EC50 in the data set on HIV-1 (IIIB) [1] (setting [7]) is above 500 µM.

For `NC(=O)C(N)O` (stereo not drawn) [Met-X, α-hydroxyglycinamide], in the data set with HIV-1 (IIIB) [2] (boiled fetal bovine serum or human serum samples, results the experiments will show), the “inhibition of replication of HIV” value was “efficiently inhibits replication of HIV”. Besides, the Visible syncytia result in the data set on HIV (SF2 virus) [4] (100 μM in boiled RPMI++), in the data set with HIV (SF2 virus) [4] (100 μM in normal RPMI++ (10% FCS)), with HIV (SF2 virus) [4] (500 μM in boiled RPMI++) and in the data set on HIV (SF2 virus) [4] (500 μM in normal RPMI++ (10% FCS)) was “negative” throughout. The “inhibition of replication and/or propagation of HIV by visual inspection” value in the data set on HIV (SF2 virus) [4] (boiled fetal calf serum) is recorded as “effectively inhibited”. In addition, the OD1 with HIV (SF2 virus) [5] (50 μM, fetal calf serum) is 1.105 and 1.895 and 2.351; in the data set on HIV (SF2 virus) [5] (100 μM, fetal calf serum) it was 0.193 and 0.081 and 0.144. The “conc p24” value in the data set with HIV (SF2 virus) [5] (50 μM, human serum) is 457.33 ng/mL and 427.85 ng/mL and 261.05 ng/mL. Also, the “inhibition of HIV replication, p24” value in the data set with HIV (SF2 virus) [5] (100 μM, presence of fetal calf serum) is on record as “effectively inhibited HIV replication”. Further, the “inhibition of HIV, accumulation of p24, compared with reference” value in the data set with HIV (SF2 virus) [5] (fetal calf serum) is recorded as “as effectively as GPG-NH2; also recorded: as effectively as G-NH2”. The “inhibition of HIV replication, accumulation of p24” value with HIV (SF2 virus) [5] (human serum) is given as “inhibited HIV replication in human serum”; in the data set on HIV (SF2 virus) [5] (human serum, listed as Metabolite X) it was “effective inhibitors of HIV replication in human serum”. Also, the “reverse transcriptase activity in treated samples” value in the data set with HIV (SF2 virus) [6] (100 μM, fetal calf serum) is on record as “no reverse transcriptase activity”. Also, the “inhibition of HIV replication, reverse transcriptase (RT) activity” value in the data set with HIV (SF2 virus) [6] is given as “inhibited the replication of HIV”; in the data set on HIV (SF2 virus) [6] (listed as Metabolite X), “effectively inhibited replication HIV”. In addition, in the data set with HIV (SF2 virus) [6] (fetal bovine serum, 10 days), the “concentration at which inhibition of HIV replication is virtually complete” value is at least 15.6 µM.

For the molecule `NC(=O)C(N)=O` [Oxamide, Oxamide (H2NCOCONH2), reference compound], the 50% effective concentration (EC50) in the data set on HIV-1 (IIIB) [1] (setting [8]) is above 500 µM; in the data set on HIV-1 (IIIB) [3] (Human immunodeficiency virus 1, IIIB, MT4, read-out: EC50 (MT-4) HIV-1 (IIIB)), above 500 µM; with HIV-2(ROD) (Human immunodeficiency virus 2, MT4, read-out: EC50 (MT-4) HIV-2 (ROD), Table 19), above 500 µM.

In the case of `CNCC(N)=O` [Sarcosinamide], in the data set on HIV-1 (IIIB) [1] (setting [7]), the EC50 is above 1000 µM.
